According to the Kinase Knowledgebase extract (Sharma et al. 2016):
pEC50, pIC50: −log10 of the molar value.

molecular target: PIK3CB (Human) (UniProt P42338); experiment: Cell-Based Assay; details: mda-mb-468
Sequence (P42338 whole entry, looked up): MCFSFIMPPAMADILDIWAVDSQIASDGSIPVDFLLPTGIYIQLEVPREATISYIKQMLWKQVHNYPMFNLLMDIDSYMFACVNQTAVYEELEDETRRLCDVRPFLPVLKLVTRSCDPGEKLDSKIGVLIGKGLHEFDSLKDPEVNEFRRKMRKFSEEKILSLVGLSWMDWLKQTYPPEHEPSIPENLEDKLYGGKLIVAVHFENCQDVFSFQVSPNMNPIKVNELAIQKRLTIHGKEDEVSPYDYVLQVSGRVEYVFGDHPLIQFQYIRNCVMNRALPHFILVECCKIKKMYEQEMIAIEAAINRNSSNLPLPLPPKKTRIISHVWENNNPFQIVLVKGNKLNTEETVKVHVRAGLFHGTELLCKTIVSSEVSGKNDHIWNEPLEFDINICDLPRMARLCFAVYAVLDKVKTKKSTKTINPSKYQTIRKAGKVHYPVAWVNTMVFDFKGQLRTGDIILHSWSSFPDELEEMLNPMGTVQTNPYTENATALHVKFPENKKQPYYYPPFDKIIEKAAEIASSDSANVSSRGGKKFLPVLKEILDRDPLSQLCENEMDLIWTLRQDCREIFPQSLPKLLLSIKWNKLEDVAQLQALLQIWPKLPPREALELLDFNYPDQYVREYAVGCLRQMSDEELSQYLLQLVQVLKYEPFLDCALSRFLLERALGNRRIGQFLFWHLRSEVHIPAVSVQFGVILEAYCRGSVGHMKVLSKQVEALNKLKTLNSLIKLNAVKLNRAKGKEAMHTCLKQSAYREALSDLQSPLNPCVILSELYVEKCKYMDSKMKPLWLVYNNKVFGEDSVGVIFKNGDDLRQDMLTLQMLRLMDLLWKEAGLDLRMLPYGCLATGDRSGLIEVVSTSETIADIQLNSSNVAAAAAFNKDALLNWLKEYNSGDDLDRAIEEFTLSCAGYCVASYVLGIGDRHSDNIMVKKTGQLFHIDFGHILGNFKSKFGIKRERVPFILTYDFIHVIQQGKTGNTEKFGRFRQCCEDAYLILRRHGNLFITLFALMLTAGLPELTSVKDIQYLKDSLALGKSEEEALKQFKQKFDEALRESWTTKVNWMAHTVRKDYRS

Row | SMILES | pEC50
1 | Cc1c(Cc2cnn3c(O)cc(N4CCOCC4)nc23)cccc1C(F)(F)F | 5.50
2 | Cc1nn2c(NC(N)=O)cc(N3CCOCC3)nc2c1Cc1cccc(C(F)(F)F)c1C | 5.90
3 | Cc1nn2c(O)cc(N3CCOCC3)nc2c1Cc1cccc(C(F)(F)F)c1C | 5.30
4 | Cc1nn2c(O)cc(N3CCOCC3)nc2c1Cc1cccc2ccccc12 | 5.40
5 | Cc1nn2c(C(N)=O)cc(N3CCOCC3)nc2c1Cc1cccc(C(F)(F)F)c1C | 5.70
6 | Cc1nn2c(O)cc(C3CCOCC3)nc2c1Cc1cccc(C(F)(F)F)c1C | 4.80
7 | Cc1nn2c(C(=O)O)cc(N3CCOCC3)nc2c1Cc1cccc(C(F)(F)F)c1C | 5.50
8 | COc1nn2c(O)cc(-c3ccncc3)nc2c1Cc1cccc(Cl)c1Cl | 4.60
9 | Cc1c(Cc2cnn3c(O)cc(-c4ccncc4)nc23)cccc1C(F)(F)F | 4.80
10 | Nc1nn2c(O)cc(C3CCOCC3)nc2c1Cc1cccc(Cl)c1Cl | 5.00

molecular target: PIK3CB (Human) (UniProt P42338); experiment: Enzyme Assay; details: not given

Row | SMILES | pIC50
11 | Cc1c(Cc2c(O)nn3c(O)cc(C4CCOCC4)nc23)cccc1C(F)(F)F | 7.20
12 | CC1=NC(=O)C2SC(N3CCOCC3)=NC2N1Cc1cccc(C(F)(F)F)c1C (configuration not stated) | 9.20
